Experimental data from publication PMC6905855, “Agonist-specific voltage-dependent gating of lysosomal two-pore Na^+ channels” (eLife, 2019).
Values joined by “and” are separate entries in the source; they are usually repeats but may differ in a detail not shown here. Identical values can stand only once. “Also recorded” adds a separate entry of the source.

Columns and labels:
hTPC2 = molecular target: T1, hTPC2 (Homo sapiens, UniProt Q8NHX9); test: Whole-endolysosome recordings of ITPC2; format: biochemical; conditions: for inactivation of ITPC2, I500ms / I10ms: @-120mV; for PX / PNa, Ca2+ / PX / PNa, K+ / PX / PNa, Na+: TPC2 WT, agonist-activated ITPC2
T1 construct: expressed in transfected cells; host or cells: Cos1 and HEK293
T1 sequence (Q8NHX9 whole entry): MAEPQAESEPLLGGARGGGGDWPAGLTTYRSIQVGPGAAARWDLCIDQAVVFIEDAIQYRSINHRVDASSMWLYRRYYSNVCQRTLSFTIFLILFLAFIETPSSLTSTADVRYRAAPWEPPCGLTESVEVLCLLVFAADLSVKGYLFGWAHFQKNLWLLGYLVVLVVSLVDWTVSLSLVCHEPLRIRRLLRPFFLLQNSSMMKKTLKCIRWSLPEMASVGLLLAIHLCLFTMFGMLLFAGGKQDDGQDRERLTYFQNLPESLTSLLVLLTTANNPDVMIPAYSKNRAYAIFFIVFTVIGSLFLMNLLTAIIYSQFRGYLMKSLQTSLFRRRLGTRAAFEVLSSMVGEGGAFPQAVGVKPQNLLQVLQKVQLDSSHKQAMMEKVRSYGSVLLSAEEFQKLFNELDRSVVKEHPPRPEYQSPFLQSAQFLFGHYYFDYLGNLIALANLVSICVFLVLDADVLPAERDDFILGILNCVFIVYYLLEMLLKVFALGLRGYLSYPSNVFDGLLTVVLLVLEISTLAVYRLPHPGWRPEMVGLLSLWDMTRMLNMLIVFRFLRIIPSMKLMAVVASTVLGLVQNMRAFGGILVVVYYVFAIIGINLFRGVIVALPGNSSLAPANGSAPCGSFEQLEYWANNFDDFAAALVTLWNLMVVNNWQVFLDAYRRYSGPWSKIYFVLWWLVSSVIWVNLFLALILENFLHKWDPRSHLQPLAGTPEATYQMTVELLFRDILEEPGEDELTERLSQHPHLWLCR

TPC2^N653G = system: T2, TPC2^N653G; test: Whole-endolysosome recordings of ITPC2-N653G; format: biochemical, human; conditions: TPC2 N653G, agonist-activated current
T2 construct: expressed in transfected cells

hTPC1 = molecular target: T3, hTPC1 (Homo sapiens, UniProt Q9ULQ1); test: Whole-endolysosome recordings of ITPC1; format: biochemical
T3 construct: expressed in transfected cells; host or cells: Cos1
Protocol: It was therefore of interest to explore whether TCAs/LyNa-VAs could also act on TPC1. To investigate this, we used two different voltage paradigms. […] Second, we used a tail current paradigm to measure the amplitude of the peak inward current at −120 mV following prolonged steps to various potentials (Figure 4E).
Figure 4. […] HP = 0 mV. […] Dotted lines in A indicate where the currents were measured. […] Data are presented as Mean ± S.E.M (n = 3 patches). […] (G) Normalized I-V plots of basal voltage-dependent currents in WT TPC1- and TPC1^R540I-transfected cells. […] Figure 4—source data 1. […] Figure 4—figure supplement 1. […] (A) A voltage protocol that elicited ITPC1 tail currents as shown in Figure 4E (from −140 to 100 mV with a ∆V = 20 mV, 1 s with a 10 s inter-step interval). Arrows indicate where tail currents were measured. (B) A voltage protocol that elicited ITPC1 tail currents as shown in C. […] HP = 0 mV. […] (A) Basal whole-endolysosome ITPC1 (left) or ITPC1-R540I (right) was elicited by voltage steps (−140 to +100 mV with ΔV = 20 mV) in the absence of PI(3,5)P2 in TPC1-transfected Cos1 cells ([She et al., 2019]). Tail currents were elicited at −120 mV. (B) The effects of PI(3,5)P2 (0.3 µM) on ITPC1 (left) and ITPC1-R540I (right) step currents. […] A preconditioning voltage (+80 mV, 0.1 s) was applied before voltage steps starting from −140 to 100 mV (0.5 s, ∆V = 20 mV).
(§1) All TPC1 and TPC2 mutants were generated with a site-directed mutagenesis kit (Qiagen) using EGFP- human TPC1 and TPC2 as the templates. All constructs were confirmed by DNA sequencing.
(§2) Whole-endolysosome recordings were performed on manually isolated enlarged endolysosomes ([Wang et al., 2012]). In brief, a patch pipette was pressed against a cell and quickly pulled away to slice the cell membrane. Enlarged endolysosomes were released into a dish and identified by monitoring EGFP-TPC1/2 or the mCherry-TPC1/2 fluorescence. After formation of a gigaseal between the patch pipette and the enlarged endolysosome, capacitance transients were compensated. Voltage steps of several hundred mVs with millisecond duration were then applied to break into the vacuolar membrane. The whole-endolysosome configuration was verified by the re-appearance of capacitance transients after break-in.
(§3) Data were collected using an Axopatch 200A patch clamp amplifier, Digidata 1440, and pClamp 10.2 software (Axon Instruments). Whole-endolysosome currents were digitized at 10 kHz and filtered at 2 kHz. All experiments were conducted at room temperature (21–23°C), and all recordings were analyzed with pClamp 10.2, and Origin 8.0 (OriginLab, Northampton, MA). The permeability to cations (relative to PNa) was estimated based on following equations ([Lewis, 1979]) and Erev measurement under bi-ionic conditions:(1) PX/PNa=γNa/γX{[Na^+]Luminal/[X^+]Cytoplasmic}{exp([…])} (2) PCa/PNa=γNa/γCa{[Na^+]Cytoplasmic/[4[Ca^2+]Luminal}{exp(ErevF/RT)}{1+exp(ErevF/RT)} where R, T, F, Erev, and γ are, respectively, the gas constant, absolute temperature, Faraday constant, reversal potential, and activity coefficient. The liquid junction potentials were measured and corrected as described ([Neher, 1992]).

hTPC1^R540I = system: T4, hTPC1^R540I; test: Whole-endolysosome recordings of ITPC1-R540I; format: biochemical, human
T4 construct: expressed in transfected cells; host or cells: Cos1

[1] = system: surface-expressing mutant TRPML1 channels (TRPML1^4A); test: Whole-cell recordings of ITRPML1-4A; format: cell-based; conditions: TRPML1-4A wc; individual cells
TPC1/2 DKO HAP1 cells = test: Whole-endolysosome recordings in TPC1/2 DKO HAP1 cells; format: biochemical, human
Source text: TCAs, with a general structure of an aromatic greasy core and an aliphatic chain containing a terminal amine, are lysosomotropic compounds that are known to be highly accumulating in the lysosomes due to proton trapping ([Beckmann et al., 2014]). We next tested the effects of LyNa-VAs in hTPC2-transfected Cos1 and HEK293 cells using whole-endolyosome patch-clamp.
Data are presented as Mean ± S.E.M (n = 3 patches). […] For panels B, D and F, individual data and Mean ± S.E.M are presented. *, p<0.05; **, p<0.01; ***, p<0.001; N.S., no significance. Figure 3—source data 1. […] Figure 3—figure supplement 1. […] Both individual data points and Mean ± S.E.M are presented (n ≥ 3 patches; also see individual data in Figure 3—figure supplement 1—source data 1). Figure 3—figure supplement 1—source data 1.
TPC1 and TPC2 CRISPR KO cells were generated in HAP1 cells using the CRISPR/Cas9 system. The TPC1 sequence (5'cttgcagtacttcagcaccc3', TPC1-sgRNA) and TPC2 sequence (5'ccccagcgtcgggctgctgc3', TPC2-sgRNA) were targeted with pSpCas9 (BB)−2A-puro vector (Addgene). HAP1 cells were co-transfected with TPC1 and TPC2-sgRNA expressing vector in the presence of Lipofectamine 2000 (In vitrogen) and selected with 2 μg/ml puromycin for 48 hr. The remaining cells were trypsinized and seeded into 96-well plate after a limiting dilution. When single cell clones were established, their genomic DNAs were extracted and amplified with following primers: TPC1-fw: 5’atggcccagacatgtgactc3’, TPC1-re: 5’ tgcctgtctccatcctctca3’; TPC2-fw: 5’tgagctgagcatgaggcaag3’, TPC2-re: 5’ aaaggacaagtggccctgag3’. The PCR amplicons were then sequenced to confirm the intended genetic disruption.
as §2
as §3, with “coefficient.” for “coefficient. The liquid junction potentials were measured and corrected as described ([Neher, 1992]).”

[2] = molecular target: T5, surface-expressing mutant TPC2 channel (TPC2^LL/AA) in HEK293 cells (Homo sapiens, UniProt Q8NHX9, L11A/L12A); test: Whole-cell recordings of ITPC2-LL/AA; format: cell-based; conditions: for current density: whole cell recordings, individual recordings
T5 construct: expressed in transfected cells; host or cells: HEK293
T5 sequence (Q8NHX9 whole entry L11A/L12A): as the sequence (Q8NHX9 whole entry) above, with L11A, L12A counted along it
Source text: We therefore characterized the responses of TPC2 channels to TCAs in detail using electrophysiological methods. We first performed whole-cell recordings in HEK293 cells that were transfected with surface-expressed TPC2 mutant channels (TPC2-L^11L^12-AA; abbreviated as TPC2^LL/AA hereafter).
as §1
Cells were transfected with Lipofectamine 2000 (Invitrogen). After culture media were refreshed 18–24 hr post-transfection, cells were used for the electrophysiological assays 24–36 hr post-transfection.
All bath solutions were applied via a perfusion system that allowed complete solution exchange within a few seconds. […] Whole-cell currents were digitized at 10 kHz and filtered at 2 kHz.

[3] = PI(3,5)P2 0.3 µM, LyNa-VA1.2 100 µM, LyNA1 300 µM, individual tests, listed as pip2

Compound: PI(3,5)P2
- voltage dependence of TPC2 activation (in words) (hTPC2): voltage independent; also recorded: no apparent voltage-dependent activation
- inactivation of ITPC2, I500ms / I10ms (hTPC2; [3]): 1.002 and 0.9763 and 0.9931 and 0.9868
- inactivation of ITPC2, I500ms / I10ms (hTPC2; mean): 0.9895
- Rectification index of ITPC2, I+80mV/I-80mV (hTPC2; [3]): 0.8422 and 1.096 and 1.053 and 1.001
- Rectification index of ITPC2, I+80mV/I-80mV (hTPC2; PI(3,5)P2 0.3 µM, LyNa-VA1.2 100 µM, LyNA1 300 µM, mean): 1.00 ± 0.06
- Rectification index of ITPC2, I+80mV/I-80mV (hTPC2; PI(3,5)P2 0.3 µM, LyNa-VA1.2 100 µM, LyNA1 300 µM, mean, listed as pip2): 0.9981
- PX / PNa, Ca2+ (hTPC2; individual): 0.016 and 0.034
- PX / PNa, K+ (hTPC2; individual): 0.02921 and 0.09237 and 0.08877 and 0.01887
- PX / PNa, Na+ (hTPC2; individual): 0.9921 and 1.104 and 1
- PX / PNa, Ca2+ (hTPC2; mean): 0.022
- PX / PNa, K+ (hTPC2; mean): 0.05731
- PX / PNa, Na+ (hTPC2; mean): 1.032
- activation of whole-endolysosome ITPC2 (in words) (hTPC2; bath application, symmetric Na^+): activated a large whole-endolysosome ITPC2 with linear I-V
- I@500ms/I@10ms (current decline at steady state) (hTPC2; voltage-step protocols, at all potentials): ~1.0
- PX / PNa, K+ (TPC2^N653G; individual): 0.5092 and 0.6027 and 0.4961 and 0.3927
- PX / PNa, K+ (TPC2^N653G; mean): 0.5002
- effect on whole-endolysosome ITPC1 (in words) (hTPC1): large enhancement at negative potentials
- effect on ITPC1-R540I (in words) (hTPC1^R540I): large currents at all potentials

Compound: ML-SA1
- current, whole-cell ITRPML1-4A [1]: 4274.3 pA and 5928.6 pA
- activation of ITRPML1 in TPC1/2 DKO cells (in words) (TPC1/2 DKO HAP1 cells): readily activated ITRPML1

Compound: CN(C)CCCN1c2ccccc2Sc2ccc(Cl)cc21 [LyNa-VA2.1, Chlorpromazine]
- activation of whole-cell ITPC2-LL/AA (in words) ([2]; bath application, symmetric Na^+, 100 µM where stated): ITPC2 was evoked
- current density ([2]; 5 µM): 7.8 pA/pF
- current density ([2]; 10 µM): 11.2294 pA/pF and 9.959 pA/pF and 11.6261 pA/pF and 6.052 pA/pF
- current density ([2]; 20 µM): 17.6973 pA/pF and 20.0248 pA/pF and 34.5739 pA/pF and 9.104 pA/pF
- current density ([2]; 50 µM): 54.3211 pA/pF and 69.6612 pA/pF and 69.313 pA/pF and 27.4087 pA/pF
- current density ([2]; 100 µM): 137.55 pA/pF and 140.785 pA/pF and 150.409 pA/pF and 87.5478 pA/pF
- current density ([2]; 200 µM): 152.165 pA/pF and 168.074 pA/pF and 117.748 pA/pF
- EC50 ([2]; whole-cell recordings at −140 mV, TPC2^LL/AA-transfected HEK293 cells, read-out: EC50): 60 ± 2 µM
- ITPC2 (hTPC2; whole endolysosome recordings with 100 µM of LyNa-VAs at −120 mV): 1101 ± 508 pA
- effect on whole-endolysosome ITPC1 (in words) (hTPC1): inhibited ITPC1
- Dose-dependent inhibition of TPC1 (ITPC1, value at 0 µM = 1) (hTPC1; 3 µM, individual patches): 0.9084 and 0.9958 and 1.027
- Dose-dependent inhibition of TPC1 (ITPC1, value at 0 µM = 1) (hTPC1; 3 µM, mean): 0.9772
- Dose-dependent inhibition of TPC1 (ITPC1, value at 0 µM = 1) (hTPC1; 10 µM, individual patches): 0.8547 and 1.003 and 0.8763
- Dose-dependent inhibition of TPC1 (ITPC1, value at 0 µM = 1) (hTPC1; 10 µM, mean): 0.9114
- Dose-dependent inhibition of TPC1 (ITPC1, value at 0 µM = 1) (hTPC1; 30 µM, individual patches): 0.8617 and 0.806 and 0.5194
- Dose-dependent inhibition of TPC1 (ITPC1, value at 0 µM = 1) (hTPC1; 30 µM, mean): 0.729
- Dose-dependent inhibition of TPC1 (ITPC1, value at 0 µM = 1) (hTPC1; 100 µM, individual patches): 0.4994 and 0.4103 and 0.291
- Dose-dependent inhibition of TPC1 (ITPC1, value at 0 µM = 1) (hTPC1; 100 µM, mean): 0.4003
- Dose-dependent inhibition of TPC1 (ITPC1, value at 0 µM = 1) (hTPC1; 300 µM, individual patches): 0.197 and 0.08086 and 0.1214
- Dose-dependent inhibition of TPC1 (ITPC1, value at 0 µM = 1) (hTPC1; 300 µM, mean): 0.1331
- IC50 (hTPC1; whole-endolysosome, n = 3 patches, read-out: IC50, inhibition of TPC1): 77 ± 2 µM
